Patent US6218378A, “Anti-tumor agents comprising pyridyl-substituted metal-diphosphine complex” (priority 1994, dated 2001)
Like-named read-outs stand apart in the source and are kept apart here.

What was measured:
CH1 [1] = details: data from Kelland et al., 1992; cited from earlier work
HeLa-S1a = details: ID37 data from Ying Dong et al. submitted for publication; cited from earlier work
JAM = details: ID37 data from Ying Dong et al. submitted for publication; cited from earlier work
CI-80-13S = details: ID37 data from Ying Dong et al. submitted for publication; cited from earlier work
Rhodamine 123 uptake = details: cells treated with cisplatin; cited from earlier work
SKOV-3 [2] = details: data from McKeage et al., 1994; cited from earlier work
CH1-cisR [3] = details: data from Kelland et al., 1992; cited from earlier work
HeLa = details: ID37 data from Ying Dong et al. submitted for publication; cited from earlier work
41M-cisR [4] = details: data from Kelland et al., 1992; cited from earlier work
41M [5] = details: data from Kelland et al., 1992; cited from earlier work
[6] = test system: mitochondria of carcinoma derived cells; details: carcinoma derived versus untransformed cells; cited from earlier work
[7] = from Chen in Cancer Cells 1; cited from earlier work
41M [8] = test: cytotoxicity assay, sulforhodamine B; format: cell-based, human; details: Homo sapiens, 96 hrs, mean ± SD or individual values when n<3
Protocol: (§1) In Table 2, reference is made to cell lines 41M, 41M-cisR, SKOV-3, CH1 and CH1-cisR.
(§2) J. Cancer 69 1-7. The characteristics of the cell line pairs CH1/CH1 cisR, 41M/41McisR and 41M/SKOV3 are described in Table 3.
(§3) The cytotoxicity assay used sulforhodamine B which stains the basic amino acids. Cells (5000 or 2500 for SKOV-3) were seeded into 96 well microtitre plates (Linbro, Flow Laboratories Inc., USA) in 0.1 ml of medium. After an overnight incubation, the metal phosphine compounds were dissolved in 0.9% NaCl or ethanol and diluted with medium, were added at concentrations ranging from 0.005 to 50 μM to quadruplicate wells. After 96 hrs incubation, the medium was removed and cells were fixed in 0.2 ml of cold 10% (w/v) trichloroacetic acid (May & Baker Ltd., Dagenham, England) for 30 mins at 4° C. The plates were washed five times with tap water. Then 0.1 ml of 0.4% (w/v) sulforhodamine B (Sigma Chemical Co., St. Louis, USA) dissolved in 1% acetic acid (Ajax Chemicals, Australia) was added to the wells and left to stand at room temperature for 15 mins. The plates were then washed five times with 1% acetic acid and left to dry overnight. The next morning, 0.1 ml of 10 mM Tris buffer (Sigma Chemical Co., St. Louis, USA) was then added to each plate to solubilise the dye. Absorbance was read at a wavelength of 570 nm using a 96 well plate reader Dynatech MR 5000 plate reader. Absorbance of treatment cells was expressed as a percentage of positive (drug-free) controls. The results were plotted as percentage growth versus drug concentration.

CH1-cisR [9] = test: cytotoxicity assay, sulforhodamine B; format: cell-based, human; details: Homo sapiens, CH1cisR, 96 hrs, mean ± SD or individual values when n<3
Protocol: as §1, §2, §3

CH1 [10] = test: cytotoxicity assay, sulforhodamine B; format: cell-based, human; details: Homo sapiens, 96 hrs, mean ± SD or individual values when n<3
Protocol: as §1, §2, §3

SKOV-3 [11] = test: cytotoxicity assay, sulforhodamine B; format: cell-based, human; details: Homo sapiens, SK-OV-3, 96 hrs, mean ± SD or individual values when n<3
Protocol: as §1, §2, §3

41M-cisR [12] = test: cytotoxicity assay, sulforhodamine B; format: cell-based, human; details: Homo sapiens, 41McisR, 96 hrs, mean ± SD or individual values when n<3
Protocol: as §1, §2, §3

[13] = test system: 41M, 41M-cisR, SKOV-3, CH1, CH1-cisR; test: growth inhibition of cisplatin-sensitive and -resistant ovarian cancer cell lines (Table 2, FIG. 5); format: cell-based, human; details: 41M/41M-cisR and CH1/CH1-cisR pairs
From the text: (§4) The sensitive CH1 cell line was established from a patient with drug-sensitive disease and its resistant variant (CH1-cisR) was generated by prolonged in vitro exposure to cisplatin during which it acquired more efficient DNA repair as described in Kelland et al., 1992, Cancer Research 52 3857-3864. The sensitive 41M cell line was also established from a patient with a sensitive tumor and its resistant variant (41M-cisR) was generated in the same way but acquired decreased uptake across the cell membrane (Kelland et al., 1992, supra). The intrinsically-resistant SKOV-3 ovarian carcinoma cell line has high glutathione levels as described in Mistry et al., 1991, Brit. J. Cancer 64 215-220 and reduced levels of bi-functional cisplatin-DNA lesions as described in McKeage et al., 1994, Brit. J. Cancer 69 1-7. The characteristics of the cell line pairs CH1/CH1 cisR, 41M/41McisR and 41M/SKOV3 are described in Table 3.
as §3, with “concentration. The drug concentration resulting in a 50% growth inhibition was termed the IC50. The passage numbers used for the cytotoxicity assay from each cell line were, CH1 passages 50-58, CH1 cis-R passages 77-83, 41M passages 50-63, 41M cisR 81-92 and SKOV-3 passages 106-128.” for “concentration.”

tumour models in mice = details: literature; mice; cited from earlier work
[14] = test system: mitochondrial membrane / oxidative phosphorylation; details: cited from earlier work
[15] = attributed to lipophilic cationic properties; cited from earlier work
DNA in tumour cells = details: cited from earlier work
Beagle dogs = details: cited from earlier work
human tumour cell lines = test: selectivity of cytotoxicity over all cell lines evaluated (Tables 1 and 2); format: cell-based
From the text: The origins of the human melanoma cell line MM96 has been described in Whitehead et al., 1973, Pigment Cell 1 383-389. The cell line JAM is described in Ward et al., 1987, Cancer Res. 47 2662-2667. The origin of the ovarian tumour line CI-80-13S has been described in Bertoncello et al., 1985, Aust. J. Exp. Biol. Med. Sci. 63 241-243. The origin of the cervical carcinoma cell line HeLa has been described in Maynard et al., 1986, Cancer Res. 46 5009-5093. The subclone HeLa-S1a was derived by stably transfecting HeLa with PAI-2 cDNA described in Schleuning et al., 1987, Mol. Cell. Biol. 7 4564-4567 in the sense orientation under the control of the cyto-megalovirus (CMV) promoter. The stably infected subclone was isolated following G418 selection and expression of the PAI-2 transgene characterised by immunoblot analysis and quantitated by ELISA. All of these cell lines have been used before for carrying out cell survival assays referred to in FIGS. 1-4. Cells were cultured at 37° in 5% CO2 /air in Roswell Park Memorial Institute medium 1640 containing 5% foetal calf serum, 100 μg/ml streptomycin, 100 IU/ml penicillin, 1 mM pyruvate, 50 μM nicotinamide and 3 mM HEPES.
Cells were seeded in microtitre plates (lowest number for fastest growing cells: 1000 HeLa, 2000 MM96, […] CI-80-13S cells per 6 mm well in 100 μl), normally but not necessarily allowed to attach overnight, then 5 dilutions of the drug were added to duplicate wells. After an overnight incubation to equilibrate the pH, the lids were quickly taped around the edge to prevent evaporation. The plates were incubated for 5-7 days, until the controls were nearly confluent. Cell growth/morphology was scored at each dose visually (inverted microscope). The medium was then replaced by 50 μl fresh medium containing 2 u/Ci/ml [methyl-3H]-thymidine (5 Ci/mmol; Radiochemical Centre, Amersham, Bucks., U.K.) and incubated for 2-4 hr. The cells were washed with PBS (0.1 M NaCl, 50 mM phosphate, pH 7.2), detached with 100 μl of PBS containing 0.2 mg/ml trypsin and 10 mM EDTA, and washed onto a glass fibre GF/a filter mat with water using a cell harvester. Later, wells were checked under the microscope to ensure complete detachment and washout. Radioactivity was determined in an LKB Beta Plate counter and the results plotted as log % control cpm versus dose. The ID50 (dose required to give 50% survival) was interpolated from this survival curve.
as §4
The cytotoxicity assay used sulforhodamine B which stains the basic amino acids. Cells (5000 or 2500 for SKOV-3) were seeded into 96 well microtitre plates (Linbro, Flow Laboratories Inc., USA) in 0.1 ml of medium. After an overnight incubation, the metal phosphine compounds were dissolved in 0.9% NaCl or ethanol and diluted with medium, were added at concentrations ranging from 0.005 to 50 μM to quadruplicate wells. After 96 hrs incubation, the medium was removed and cells were fixed in 0.2 ml of cold 10% (w/v) trichloroacetic acid (May & Baker Ltd., Dagenham, England) for 30 mins at 4° C. The plates were washed five times with tap water. […]

N.N.[Cl][Pt][Cl] [Cisplatin]
IC50 (CH1 [1]): 110 ± 10 nM | ID37 (HeLa-S1a): 0.62 ± 0.08 µM | ID37 (JAM): 0.83 ± 0.3 µM | ID37 (CI-80-13S): 4.17 ± 0.5 µM | Rhodamine 123 uptake (Rhodamine 123 uptake): Rhodamine 123 uptake increases | IC50 (SKOV-3 [2]): 2100 nM | IC50 (CH1-cisR [3]): 710 ± 200 nM | ID37 (HeLa): 0.29 ± 0.04 µM | IC50 (41M-cisR [4]): 1200 ± 400 nM | IC50 (41M [5]): 260 ± 100 nM

CCN(CC)c1ccc2c(-c3ccccc3C(=O)O)c3ccc(=[N+](CC)CC)cc-3oc2c1 [Rhodamine, reference compound]
ID37 (HeLa-S1a): 0.58 ± 0.08 µM | ID37 (JAM): 0.90 ± 0.03 µM | ID37 (CI-80-13S): 0.105 ± 0.026 µM | accumulation in mitochondria [6]: accumulate in the mitochondria of most carcinoma derived cells more rapidly than in most untransformed cells | partition co-efficient [7]: 0.34 | IC50 (41M [8]): 3000 nM | IC50 (CH1-cisR [9]): 500 nM | IC50 (CH1 [10]): 900 nM | IC50 (SKOV-3 [11]): 1000 nM | IC50 (41M-cisR [12]): 1000 nM | ID37 (HeLa): 2.73 ± 0.28 µM | sensitivity of cisplatin resistant cells versus non-resistant cells [13]: the cisplatin resistant cells are more sensitive to Rhodamine than the nonresistant cells

[Au+].[Cl-].c1ccc(P(CCP(c2ccccc2)c2ccccc2)c2ccccc2)cc1.c1ccc(P(CCP(c2ccccc2)c2ccccc2)c2ccccc2)cc1 [[Au(dppe)2]Cl]
ID37 (HeLa-S1a): 0.073 ± 0.005 µM | ID37 (JAM): 0.73 ± 0.15 µM | antitumour activity (tumour models in mice): good antitumour activity | effect on mitochondrial function [14]: uncouples oxidative phosphorylation via dissipation of the membrane potential | hepatotoxicity [15]: severe and unacceptable hepatotoxicity | ID37 (CI-80-13S): 0.20 ± 0.03 µM | DNA damage (DNA in tumour cells): produced DNA-single strand breaks and DNA-protein crosslinks in tumour cells | toxicities in preclinical trials (Beagle dogs): severe cardiac, hepatic and vascular toxicities | degree of selectivity (human tumour cell lines; Tables 1 and 2): the least selectivity | number of cell lines against which cytotoxic (human tumour cell lines; nine cell-lines tested / all evaluated): cytotoxic to all the cell lines evaluated | ID37 (HeLa): 0.95 ± 0.13 µM
